{"source": "patent US7807781B2", "about": "“Inhibitors of serine protease activity and their use in methods and compositions for treatment of viral infections” (The Regents of the University of Colorado, priority 1999, dated 2010)", "key": {"[1]": {"test_system": "HIV-1 production in U1 cells", "assay": "U1 monocytic cell assay, TNF-induced HIV-1 p24 antigen", "assay_type": "cell-based", "conditions": "for TNF-induced p24 antigen: 3.0 ng/ml TNF"}, "[2]": {"test_system": "HIV-1 strain A018A in MAGI-CCR-5 cells", "assay_type": "cell-based", "conditions": "for mean positive cell count: +HIV-1; for inhibition of MAGI-CCR-5 cell early infection events: compared to HIV-1 alone"}, "[3]": {"test_system": "HIV-1 production in U1 cells", "assay": "U1 monocytic cell assay, IL-6-induced HIV-1 p24 antigen", "assay_type": "cell-based", "conditions": "for p24 antigen: 100 ng/ml IL-6"}, "[4]": {"test_system": "HIV-1 production in U1 cells", "assay": "U1 monocytic cell assay, IL-18-induced HIV-1 p24 antigen", "assay_type": "cell-based", "conditions": "for p24 production: 0.5 nM IL-18, 48 hr", "description": "U1 monocytic cell assay. U1 cells are obtained from the AIDS Research and Reference Reagent Program, National Institute of Allergy and Infectious Diseases, NIH. U1 cells are maintained in T-175 polystyrene flasks (Falcon, Becton Dickinson, Franklin Lakes, N.J.) in medium and used when in log phase growth. Cells are counted in a hemacytometer, examined for viability by Trypan blue exclusion (>95% for all experiments) and resuspended in fresh medium at 2×10^6 per ml. Two-hundred fifty […] are added to wells of 24-well polystyrene tissue culture plates (Falcon), followed by the addition of medium or AAT to produce the final concentration to be tested in a volume of […]. After 1.0 hr of incubation (37° C., 5% CO2), 50 ml of medium (control) or stimulus diluted in medium are added to wells to produce the final concentration of stimulus to be tested. The final culture volumes are […] and contained 1×10^6 cells per ml. After 48 hr of incubation (37° C. and 5% CO2) 50 ml of 10% (vol/vol) Triton-X-100 (Fisher Scientific, Fair Lawn, N.J.) is added to each culture (final concentration of 1% vol/vol), and cultures are frozen and thawed once. This is followed by assay for HIV-1 p24 antigen by ELISA with a lower limit of detection of 31 pg/ml (NCI-Frederick Cancer Research and Development Center, Frederick, Md.). The disruption of cells due to the addition of Triton-X-100 and the freeze-thaw cycle produced cell lysates and enabled assessment of total (secreted and cell-associated) production of p24 antigen.\nData are presented as means±SEM. Group means are compared by ANOVA using Fisher's least significant difference. For data expressed as percent change, the values for p24 in control cultures (medium alone) are subtracted from those for each culture-containing stimulus. The p24 concentrations in cultures conducted in the presence of stimulus alone are set at 100%. Percent p24 in cultures containing stimulus and AAT are calculated by dividing the measured p24 by that present in cultures containing stimulus alone. The resultant fraction is expressed as a percent.\nThe U1 cell line is derived from human monocytic U937 cells into which 2 copies of HIV-1 provirus are incorporated into host genome. Exposing U1 cells to pro-inflammatory cytokines such as IL-18, IL-1, IL-6 and TNF, phorbol esters or hyperosmolarity results in the induction of HIV-1 as assessed by p24 antigen. Stimulation of U1 cells with 0.5 nM IL-18 induced large amounts of p24 antigen after 48 hr of incubation in 3 separate experiments. U1 cells cultured in medium alone (control) contained a mean of 41.3±11.5 pg/ml p24 antigen, which is increased 150-fold to 6,235±1,775 pg/ml p24 following stimulation with IL-18. […] At 1, 2 and 3 mg/ml AAT, the percent reductions observed compared to stimulation with IL-18 alone are 65±1.8, 93±3.0 and 98±1%, respectively."}, "U1 cells": {"test_system": "U1 cells", "assay": "U1 cell proliferation and viability (hemacytometer, trypan blue exclusion)", "assay_type": "cell-based, human", "conditions": "5 mg/ml AAT, 48 hrs", "description": "To evaluate the effect of AAT on U1 cell proliferation and viability, 3 experiments are performed in the presence or absence of 5 mg/ml AAT. U1 cells are added at 1×10^6 cells per ml and cultured for 48 hrs. Following incubation, cells are quantified using a hemacytometer. The mean±SEM cell concentrations in control and AAT-containing cultures are 2.5×10^6±0.5×10^6 and 2.4×10^6±0.3×10^6 respectively. […] For all cultures, cell viability by trypan blue exclusion is >95%. The lack of toxicity is illustrated in FIG. 13."}, "[5]": {"test_system": "HIV-1 production in U1 cells", "assay": "U1 monocytic cell assay, NaCl (hyperosmolarity)-induced HIV-1 p24 antigen", "assay_type": "cell-based"}, "[6]": {"test_system": "HIV-1 production in U1 cells", "assay": "U1 monocytic cell assay, LPS-induced HIV-1 p24 antigen", "assay_type": "cell-based", "conditions": "for p24 antigen: 500 ng/ml LPS, 48 hrs"}, "NF-κB": {"test_system": "NF-κB", "assay": "IL-18-induced NF-κB expression", "assay_type": "cell-based", "conditions": "compared with IL-18 alone (lane 4)"}}, "note": "Where two headings read alike, the source gives them in different places."}
{"substance": "AAT: Alpha-1-antitrypsin purified from the blood of healthy volunteers to single-band homogeneity", "values": [{"measurement": "TNF-induced p24 antigen", "setting": "[1]; AAT 0.1 mg/ml", "result": "16,405±8,449 pg/ml"}, {"measurement": "TNF-induced p24 antigen", "setting": "[1]; AAT 0.5 mg/ml", "result": "16,863±7,718 pg/ml"}, {"measurement": "TNF-induced p24 antigen", "setting": "[1]; AAT 1 mg/ml", "result": "15,328±7,129 pg/ml"}, {"measurement": "TNF-induced p24 antigen", "setting": "[1]; AAT 2 mg/ml", "result": "12,566±4,981 pg/ml"}, {"measurement": "TNF-induced p24 antigen", "setting": "[1]; AAT 3 mg/ml", "result": "9,341±2,730 pg/ml"}, {"measurement": "TNF-induced p24 antigen", "setting": "[1]; AAT 4 mg/ml", "result": "9,091±3,436 pg/ml"}, {"measurement": "TNF-induced p24 antigen", "setting": "[1]; AAT 5 mg/ml", "result": "6,868±2,737 pg/ml"}, {"measurement": "mean percent reduction in TNF-induced p24 antigen", "setting": "[1]; AAT 3 mg/ml", "result": 56, "unit": "%"}, {"measurement": "mean percent reduction in TNF-induced p24 antigen", "setting": "[1]; AAT 4 mg/ml", "result": 60, "unit": "%"}, {"measurement": "mean percent reduction in TNF-induced p24 antigen", "setting": "[1]; AAT 5 mg/ml", "result": 73, "unit": "%"}, {"measurement": "mean positive cell count", "setting": "[2]; AAT 0.1 mg/ml", "result": "74±13"}, {"measurement": "mean positive cell count", "setting": "[2]; AAT 1.0 mg/ml", "result": "75±17"}, {"measurement": "mean positive cell count", "setting": "[2]; AAT 3.0 mg/ml", "result": "45±12"}, {"measurement": "mean positive cell count", "setting": "[2]; AAT 4.0 mg/ml", "result": "28±9"}, {"measurement": "mean positive cell count", "setting": "[2]; AAT 5.0 mg/ml", "result": "21±12"}, {"measurement": "inhibition of MAGI-CCR-5 cell early infection events", "setting": "[2]; AAT 2.0 mg/ml", "result": 23, "unit": "%"}, {"measurement": "inhibition of MAGI-CCR-5 cell early infection events", "setting": "[2]; AAT 3.0 mg/ml", "result": 41, "unit": "%"}, {"measurement": "inhibition of MAGI-CCR-5 cell early infection events", "setting": "[2]; AAT 4.0 mg/ml", "result": 66, "unit": "%"}, {"measurement": "inhibition of MAGI-CCR-5 cell early infection events", "setting": "[2]; AAT 5.0 mg/ml", "result": 76, "unit": "%"}, {"measurement": "p24 antigen", "setting": "[3]; AAT 0.1 mg/ml", "result": "6,228±2,129 pg/ml"}, {"measurement": "p24 antigen", "setting": "[3]; AAT 0.5 mg/ml", "result": "3,992±1,987 pg/ml"}, {"measurement": "p24 antigen", "setting": "[3]; AAT 1 mg/ml", "result": "3,850±1,943 pg/ml"}, {"measurement": "p24 antigen", "setting": "[3]; AAT 2 mg/ml", "result": "2,597±1,253 pg/ml"}, {"measurement": "p24 antigen", "setting": "[3]; AAT 3 mg/ml", "result": "2,155±1,085 pg/ml"}, {"measurement": "p24 antigen", "setting": "[3]; AAT 4 mg/ml", "result": "1,838±881 pg/ml"}, {"measurement": "p24 antigen", "setting": "[3]; AAT 5 mg/ml", "result": "1,213±668 pg/ml"}, {"measurement": "mean percent reduction of IL-6-induced p24", "setting": "[3]; AAT 3 mg/ml", "result": 80, "unit": "%"}, {"measurement": "mean percent reduction of IL-6-induced p24", "setting": "[3]; AAT 4 mg/ml", "result": 88, "unit": "%"}, {"measurement": "mean percent reduction of IL-6-induced p24", "setting": "[3]; AAT 5 mg/ml", "result": 100, "unit": "%"}, {"measurement": "p24 production", "setting": "[4]; AAT 0.1 mg/ml", "result": "6,879±207 pg/ml"}, {"measurement": "p24 production", "setting": "[4]; AAT 0.5 mg/ml", "result": "3,687±968 pg/ml"}, {"measurement": "p24 production", "setting": "[4]; AAT 1 mg/ml", "result": "2,029±625 pg/ml"}, {"measurement": "p24 production", "setting": "[4]; AAT 2 mg/ml", "result": "452 ± 209", "unit": "pg/mL"}, {"measurement": "p24 production", "setting": "[4]; AAT 3 mg/ml", "result": "179 ± 79", "unit": "pg/mL"}, {"measurement": "percent reduction of p24 compared to IL-18 alone", "setting": "[4]; AAT 1 mg/ml", "result": "65±1.8", "unit": "%"}, {"measurement": "percent reduction of p24 compared to IL-18 alone", "setting": "[4]; AAT 2 mg/ml", "result": "93±3.0", "unit": "%"}, {"measurement": "percent reduction of p24 compared to IL-18 alone", "setting": "[4]; AAT 3 mg/ml", "result": "98±1", "unit": "%"}, {"measurement": "range of inhibition of HIV-1 production in U1 cells", "setting": "[4]; all stimuli tested (IL-18, IL-6, TNF, LPS, hyperosmolarity)", "result": "73-100%"}, {"measurement": "cell viability by trypan blue exclusion", "setting": "U1 cells", "result": "> 95", "unit": "%"}, {"measurement": "mean±SEM cell concentration after culture", "setting": "U1 cells; 1×10^6 cells per ml added initially", "result": "2.4×10^6±0.3×10^6 cells per ml"}, {"measurement": "NaCl-induced 26-fold increase in p24 concentration", "setting": "[5]; 60 mM NaCl, 5 mg/ml AAT", "result": "completely inhibited"}, {"measurement": "mean p24 level", "setting": "[5]; 60 mM NaCl, AAT 0.1 mg/ml", "result": "11,054±3,231 pg/ml"}, {"measurement": "mean p24 level", "setting": "[5]; 60 mM NaCl, AAT 0.5 mg/ml", "result": "7,363±485 pg/ml"}, {"measurement": "mean p24 level", "setting": "[5]; 60 mM NaCl, AAT 1.0 mg/ml", "result": "5,657±48 pg/ml"}, {"measurement": "mean p24 level", "setting": "[5]; 60 mM NaCl, AAT 3.0 mg/ml", "result": "1,919±594 pg/ml"}, {"measurement": "mean p24 level", "setting": "[5]; 60 mM NaCl, AAT 4.0 mg/ml", "result": "425 ± 32", "unit": "pg/mL"}, {"measurement": "mean p24 level", "setting": "[5]; 60 mM NaCl, AAT 5.0 mg/ml", "result": "266 ± 26", "unit": "pg/mL"}, {"measurement": "percent inhibition of NaCl-induced p24", "setting": "[5]; AAT 3.0 mg/ml", "result": 76, "unit": "%"}, {"measurement": "percent inhibition of NaCl-induced p24", "setting": "[5]; AAT 4.0 mg/ml", "result": 98.3, "unit": "%"}, {"measurement": "percent inhibition of NaCl-induced p24", "setting": "[5]; AAT 5.0 mg/ml", "result": 100, "unit": "%"}, {"measurement": "p24 antigen", "setting": "[6]; AAT 1 mg/ml", "result": "1,108±241 pg/ml"}, {"measurement": "p24 antigen", "setting": "[6]; AAT 2 mg/ml", "result": "913 ± 287", "unit": "pg/mL"}, {"measurement": "p24 antigen", "setting": "[6]; AAT 5 mg/ml", "result": "626 ± 257", "unit": "pg/mL"}, {"measurement": "inhibition of LPS-induced p24 production", "setting": "[6]; AAT 3 mg/ml", "result": 71, "unit": "%"}, {"measurement": "inhibition of LPS-induced p24 production", "setting": "[6]; AAT 4 mg/ml", "result": 90, "unit": "%"}, {"measurement": "inhibition of LPS-induced p24 production", "setting": "[6]; AAT 5 mg/ml", "result": 86, "unit": "%"}, {"measurement": "IL-18-induced NF-κB expression", "setting": "NF-κB", "result": "reduced"}]}
